Assay results: US20240082260A1, “INHIBITOR OF PROTEIN KINASE D FOR USE IN PREVENTION OR TREATMENT OF HYPERLIPIDEMIA” (priority 2021, published 2024)

How the values were obtained:
PKD 1/2 = conditions: oral, dose 8 times higher than used here, cited from earlier work
Caco2 cells = assay: Lipid transport (14C-fatty acid release) through Caco2 monolayer in transwell system; type: cell-based, human; conditions: 24 h
Protocol: Lipid transport studies were assessed in Caco2 cells seeded in trans-wells. 1.5×10^5 cells were seeded into a 12-well cell culture insert of 1 μm pore size Trans-well and maintained in for 14 consecutive days with media change every two days. For the lipids uptake and release, the apical side of the membrane was loaded with radioactive ^14C-palmitic acid (0.2 μCi), oleic acid (1 mM), and taurocholic acid (2 mM) in DMEM high glucose 10% FBS. The basal medium contained DMEM high glucose 0.1% FBS. After 24 hours of incubation, cell lysates and the apical and basolateral medium was collected and the ^14C-palmitic acid was measured in a scintillation counter for aliquots of apical and basal medium and for cell lysate. The same protocol was used in Caco2 cells that were treated with CRT0066101 (3 and 5 μM) for 24 h (added together with the mentioned radioactive fatty acid cocktail).
In order to test the potential of PKD inhibitors to restrict lipid transport via epithelial monolayer, we employed Caco2 cells seeded into the Transwells system. Briefly, we plated 1.5×10^5 cells seeded into a 12-well cell culture inserts of 1-μm pore size Transwell and maintained in for 14 consecutive days with media change every 2 days. For the lipid uptake and release, the apical side of the membrane was loaded with radioactive 14C-palmitic acid (0.2 μCi), oleic acid (1 mM), and taurocholic acid (2 mM) in DMEM high glucose 10% FBS. The basal medium contained DMEM high glucose 0.1% FBS. After 24 h of incubation, cell lysates and the apical and basolateral medium were collected and the 14C-palmitic acid was measured in a scintillation counter for aliquots of apical and basal medium and for cell lysate. To assess the efficiency of different PKD inhibitors, Caco2 cells were treated with either CRT0066101 (5 μM), CID2011756 (20 μM), CID755673 (20 μM), 1-NM-PP1 (20 μM), or control solvent solution (DMSO) for 24 h (added together with the mentioned radioactive FA cocktail).

male C57BL/6 mice on HFD [1] = assay: Oral PKD inhibitor in HFD-fed C57BL/6 mice (diet-induced obesity and diabetes); type: in vivo, mouse
Protocol: Mice body weight development was closely monitored and reported here on a weekly basis when mice were on a specified diet. All experiments were performed in male mice.
PKD inhibitor CRT0066101 was dissolved in water (10 mg/kg) and administered orally to the mice by daily gavage, while the control mice were gavaged with water. Mice were maintained on the specified diets and had ab libitum access to food and water. C57BL/6 mice were administered CRT inhibitor treatment at 4-weeks of age, while for the rescue experiment, inhibitor was given under the same circumstances but treatment started only after 7 weeks of HFD feeding. Intestinal barrier permeability was further assessed 1 hour after oral gavage of FITC-Dextran 4.
Energy expenditure, food intake, and activity measurements were obtained in a PhenoMaster (TSE Systems) as previously described (El-Merahbi, Viera et al., 2020, Trujillo Viera, El-Merahbi et al., 2016). Briefly, mice were kept in separate metabolic cages with unlimited access to water and to the specified diet. After 48 hours of acclimation, data was collected every 10 min including photobeam breaks, oxygen consumption, carbon dioxide dissipation, and food and water consumption. Results in bars represent the average of each night/day cycle.
(§1) A glucose tolerance test (GTT) was performed after overnight fasting. Mice blood glucose was assessed before and 15, 30, 60, 90, and 120 minutes after intraperitoneal injection of glucose (2 g/kg). For the Insulin tolerance test (ITT), the same measurements were performed after 4 hours of fasting and intraperitoneal injection of 0.5 U/kg of recombinant insulin. For glucose measurements, one blood drop was drawn from the tail tip into a test strip and measured with a glucometer (Accu-Chek® Roche).
Lipids tolerance test was performed as described previously (Wang, Rong et al., 2016b). Briefly, overnight fasted mice were gavaged with olive oil (10 μL/g body weight). Blood was collected at indicated times for measurement of serum triglycerides content. For lipids absorption under tyloxapol treatment, 250 μg/g of body weight were i.p. injected to mice 30 minutes before the gavage of olive oil 5 μL/g body weight.
Liver triglycerides were measured by homogenization of 50 mg of liver in 500 uL of lysis buffer and lipids extraction in methanol:chloroform, phase extraction and evaporation. The lipids were redissolved in DMSO and triglycerides quantified with the mentioned kit and according to the manufacturers' instructions.
The bedding of single-caged mice was collected and the ingested food ingestion from the individual mice was assessed. All the stools were manually collected. After overnight dissecation at 60° C., the samples were weighted and frozen for further analysis. The amount of feces produced per mouse was compared to the amount of food consumed and the weight gain. About 3 g of dried feces material were homogenized and 1 g was pressed into a tablet and accurately weighted. Calorie content from feces and diet was measured in duplicates in a 6400 Automatic Isoperibol calorimeter (Parr Instrument Company). To analyze energy excreted, the amount of energy in feces was compared to the amount of energy ingested (the product between grams of food and caloric content of the food). Lipids extraction from feces was performed as previously described (Kraus, Yang et al., 2015).
Proteins from tissues and cell culture were extracted with RIPA buffer supplemented with phosphatase and protease inhibitor (PPI, Thermo Fisher Scientific). Protein concentration was measured by Pierce™ BCA Protein Assay Kit (Thermo Fisher Scientific) following the manufacturer's protocol. Reduced protein extracts were separated on 10% SDS-PAGE gels by electrophoresis and transferred to PVDF membranes under wet transfer. Membranes were blocked in 5% (w/v) milk in TBS-T before overnight probing with indicated primary antibodies at 4° C., followed by TBS-T washes and incubation with corresponding secondary antibody.

male C57BL/6 mice on HFD [2] = assay: Oral PKD inhibitor in mice with pre-established obesity (rescue, treatment after 7 weeks of HFD); type: in vivo, mouse
Protocol: as §1, with “Mice body weight development was closely monitored and reported here on a weekly basis when mice were on a specified diet. All experiments were performed in male mice. […] A glucose” for “A glucose”

For CC[C@@H](N)CNc1ccnc(-c2cc(-c3cnn(C)c3)ccc2O)n1 [CRT0066101], the “reduction in PKD 1/2 activation” value (PKD 1/2; pancreatic tumors) is listed as 50%, the “time of highest concentrations in pancreatic tumors” value (PKD 1/2) is listed as 2 h and the “lipid transport through the Caco2 monolayer” value (Caco2 cells; 5 μM, vs DMSO, FIG. 8) is listed as “significant reduction in lipid transport”. The “TG secretion (basolateral release of 14C-labeled fatty acids)” value (Caco2 cells; Caco2 transwell, 3 and 5 μM, FIG. 6A) was “reduces TG secretion in a dose dependent manner”, the “accumulation of TG in the liver” value (male C57BL/6 mice on HFD [1]; oral 10 mg/kg daily, HFD) was “did not affect” and the “brown adipose tissue morphology” value (male C57BL/6 mice on HFD [1]; oral 10 mg/kg daily, HFD) was “promoted healthier, multilocular brown adipose tissue”. The energy expenditure (male C57BL/6 mice on HFD [1]; oral 10 mg/kg daily, HFD) was “did not affect”, the food consumption (male C57BL/6 mice on HFD [1]; oral 10 mg/kg daily, HFD) was “did not affect” and the “markers of liver function” value (male C57BL/6 mice on HFD [1]; oral 10 mg/kg daily, HFD) was “did not affect”. For the same compound, the mobility (male C57BL/6 mice on HFD [1]; oral 10 mg/kg daily, HFD) was “did not affect”, the body weight gain (male C57BL/6 mice on HFD [1]; oral 10 mg/kg daily, HFD, 13 weeks, vs water, FIG. 6G) was “significantly lower body weight gain” and the “levels of APOA4 in the intestine (jejunum, western blot)” value (male C57BL/6 mice on HFD [1]; oral 10 mg/kg daily, HFD, 13 weeks, FIG. 6F) was “increased levels of APOA4”. For the same compound, the fecal energy excretion (male C57BL/6 mice on HFD [1]; oral 10 mg/kg daily, HFD, FIG. 6D) was “greater fecal energy excretion”, the “intestinal TG absorption (lipids tolerance test after olive oil gavage)” value (male C57BL/6 mice on HFD [1]; oral 10 mg/kg daily, after 9 weeks HFD, FIG. 6E) was “decreased intestinal TG absorption” and the “glucose tolerance (GTT)” value (male C57BL/6 mice on HFD [1]; oral 10 mg/kg daily, after 10 weeks of treatment and HFD, FIG. 6H) was “improved”. For the same compound, the “insulin tolerance (ITT)” value (male C57BL/6 mice on HFD [1]; oral 10 mg/kg daily, after 11 weeks of treatment and HFD, FIG. 6I) was “improved”, the “obesity induced by a high-fat diet (summary statement)” value (male C57BL/6 mice on HFD [1]; oral administration, mice, also said to prevent hyperlipidemia and diabetes and improve microflora) was “significantly reduces obesity induced by a high-fat diet” and the glucose tolerance (male C57BL/6 mice on HFD [2]; 8 weeks after starting treatment, FIG. 7D) was “improved glucose tolerance”. For the same compound, the insulin sensitivity (male C57BL/6 mice on HFD [2]; 10 weeks after starting treatment, FIG. 7E) was “improved”, the weight gain (male C57BL/6 mice on HFD [2]; treatment started after 7 weeks HFD, HFD continued, vs water, FIG. 7A) was “significantly decreased weight gain” and the “obesity (fat depots, fat mass by NMR)” value (male C57BL/6 mice on HFD [2]; treatment started after 7 weeks HFD, FIG. 7B-C) was “less obesity”.
